# Laboratory results as given in patent US9844546B2, “Antibody against human HIF hydroxylase” (OXFORD UNIVERSITY INNOVATION LIMITED, priority 2001, dated 2017).
# Entries after “also recorded” stand apart in the source; their conditions may differ.
# Test system: C. elegans
# Experiment: Immunoblot of ceHIF (HIF-1) in extracts of treated worms
# Assay type: in vivo
# Settings: 1 mM, 21% oxygen, wild type worms
# Method: Immunoblots of ceHIF levels in extracts of c. elegans were carried out to monitor regulation by hypoxia and iron chelation. Firstly, the oxygen dependence of protein induction was analysed. Worms were grown on plates in bell jars flushed with air (N), or with oxygen/balance nitrogen having an oxygen concentration of 5%, 1%, 0.5% or 0.1% for 18 hrs. A graded increase in protein level was seen as the oxygen level was reduced below 5% with the highest level of induction at 0.5 and 0.1% oxygen concentration. The time course of protein induction was then studied. Worms were grown in bell jars flushed with a 0.1% oxygen/balance nitrogen mixture for 0, 4, 8, 16 or 24 hrs before preparation of extracts. […] The time course of protein decay on re-oxygenation was then assessed. Worms were grown in bell jars flushed with air (N) or a 0.1% oxygen/balance nitrogen mixture. Extracts were made either immediately, or after 4 and 8 minutes of re-oxygenation. Decay of ceHIF protein was very rapid on re-oxygenation. […] A time course RNAse protection assay showing cehif mRNA levels in worms exposed to 0.1% oxygen/balance nitrogen for 0, 4, 8, 16 and 24 hrs was carried out. No induction of ceHIF mRNA by hypoxia was seen. […] Induction by iron chelation was also studied in C. elegans. […]
smiles,measurement,value
COC(=O)CNC(=O)C(=O)OC [dimethyloxalylglycine],ceHIF (HIF-1) protein level in normoxia,substantial increase in the amount of immunodetectable ceHIF; also recorded: strongly induced HIF-1
